Patent publication US11633458B2, “Compositions and methods for treating melanoma” (University of Virginia Patent Foundation, priority 2013, dated 2023)

Columns and labels:
DM13 cells = assay: TLR agonist dose response assay, CXCL10 producing cells by flow cytometry, constant IFNγ; assay type: cell-based, human; conditions: for optimal concentration for CXCL10 production: constant concentration of IFNγ; for effect on CXCL10 induction: in the presence of IFNγ, even at much higher concentrations than in prior experiments
Description: FIGS. 3A-3D. […] Melanoma cells were analyzed for induced chemokine production after overnight stimulation with the indicated TLR agonists with (+) or without (−) IFNγ. FIG. 3A-FIG. 3B (12 panels/images each). […] Scale bars represent 100 μm. FIG. 3C. Graphic illustration of ELISA assays to detect CXCL10 from supernatants of stimulated melanoma cells DM13 (left) and VMM1 (right). FIG. 3D. TLR agonist dose response assay. […] Data are from 2 independent experiments.
(§1) These were used with or without rh-IFNγ (1000 IU/mL; PeproTech). After stimulation, cells were detached using Accutase.
(§2) Cells were fixed and permeablilized using the BD Cytofix/Cytoperm kit and then stained with the indicated antibodies. Staining antibodies: CCL2-PE, CCL3-PE, CCL4-PE, CCL5-PE, CXCL10-PE (BD Pharmingen), CXCL9-PE, CXCL12-APC (R&D Systems), IgG1-PE, and IgG2α-PE (Caltag). Flow cytometric analyses were conducted as described.

[1] = test system: melanoma cell lines VMM1, DM13, DM93 and DM122; assay: Intracellular staining of chemokines CCL2-5, CXCL9, CXCL12 by flow cytometry after overnight TLR agonist stimulation with or without IFNγ; assay type: cell-based, human; conditions: TLR agonist alone
Description: (§3) Stained cells were collected on the FACSCalibur instrument (BD Biosciences) and analyzed with FlowJo 8.8.6 software (TreeStar, Ashland, Oreg.). Analyses were conducted on live cells (95%) as defined by forward and side-angle scatter. Gates were set based on isotype-matched (ISO) controls or fluorescence-minus-one (FMO) controls.
as §1, §2

breast cancer cell lines = assay: CXCL10 production by breast cancer cell lines, flow cytometry; assay type: cell-based, human; conditions: n=4; printed 'LPS, PAM3CSK4, and MALP-2+IFNγ', +IFNγ may apply to all three
Description: Breast cancer cells were stimulated with TLR agonists overnight alone or in combination with IFNγ (IFNγ stimulation indicated as +). CXCL10 production was assessed by flow cytometry from the indicated breast cancer cell lines (n=4).

[2] = test system: cells from freshly resected human melanoma metastases; assay: CXCL10 production by cells of freshly resected melanoma metastases, flow cytometry; assay type: cell-based; conditions: patients 1-3 (FIG. 6A)
Source text: FIGS. 6A-6E. Patient melanomas generate CXCL10 in response to TLR2/6 agonist and IFNγ. […] Cell subsets were defined as: melanoma (CD45^negS100^+), endothelial (S100^negCD45^negCD105^+), B-cell (CD20^+), DC (CD11c^+HLADR^+), macrophage (CD14^+), NK-cell (CD56^+) and T-cell (CD3^+). FIG. 6A. The percent of melanoma cells that are CXCL10^+ from patient 1 (top), patient 2 (middle) and patient 3 (bottom) tumors after stimulation with the indicated conditions (left panel). MFI for CXCL10 expression of melanoma cells from patient 1 melanoma (top) and patient 2 melanoma (middle) patient 3 melanoma (bottom) (right panel). FIG. 6B-FIG. 6D. […] Graph of CXCL10 measured by ELISA assay, cells are from patient 1 tumor.
Having observed production of CCL3 and CXCL10 by cultured human melanoma cell lines in vitro, we asked whether the same would be observed with melanoma cells isolated from fresh surgically-excised human metastases. TLR2 and TLR6 are expressed on some immune cell subsets (31; 32), thus we also assessed whether TLR2/6 agonists and IFNγ may impact CXCL10 production from immune cell subsets in patient tumor specimens. […] The percentage of live cells from tumor assessed by viability marker were approximately 60%, 50%, 70%, and 40% for patients 1-4 respectively (data not shown).

21 melanoma cell lines = assay: TLR2 and TLR6 staining by flow cytometry with or without IFNγ; assay type: cell-based, human; conditions: IFNγ stimulation, data not shown
Description: Melanoma cell lines were seeded into 6-well plates at 1×10^6 cells/well in RPMI and stimulated overnight in the presence or absence of recombinant human IFNγ (rh-IFNγ, 1000 IU/mL; PeproTech, Rocky Hill, N.J.). After stimulation, cells were detached using Accutase (Millipore, Billerica, Mass.), stained with indicated antibodies and fixed using Cytofix (BD Biosciences, San Jose, Calif.). Surface staining antibodies: TLR2-Alexa647, Streptavidin-PE (BD Pharmigen, San Jose, Calif.), TLR6-Biotin (eBioscience, San Diego, Calif.), TLR4-APC (R&D Systems, Minneapolis, Minn.). Intracellular staining: cells were fixed and permeabilized using the BD Cytofix/Cytoperm kit (BD Biosciences) and stained with appropriate antibodies: TLR7-CFS, IgG2α-CFS (R&D Systems), TLR3-PE, TLR9-APC (eBioscience), TLR8-Alexa488 (Dendritics, San Diego, Calif.), IgG1-PE, and IgG2α-PE (Caltag, Towcester, UK).
as §3

[3] = test system: melanoma cell lines VMM1, DM13, DM93 and DM122; assay: Intracellular CXCL10 staining by flow cytometry after overnight stimulation with TLR agonists with or without IFNγ; assay type: cell-based, human; conditions: averaged across the four melanoma lines, flow cytometry (FIG. 2B)
Description: as §3, §1, §2

[4] = test system: melanoma cell lines VMM1, DM13, DM93 & VMM39; assay: Gene expression profiling (gene array) of melanoma cell lines after IFNγ or TLR2/6 agonist + IFNγ; assay type: cell-based, human; conditions: Vs No treatment; Anova p≤0.005, matched comparisons
Description: To assess global effects of TLR2/6 agonists and IFNγ stimulation on melanoma, gene expression profiling of melanoma cell lines was performed.

[5] = test system: cells from fresh surgically isolated melanoma metastases; assay: CXCL10 ELISA of supernatants of stimulated cells from fresh melanoma metastases; assay type: cell-based, human; conditions: patient 1 tumor (FIG. 6E)
Description: Melanoma cell lines or cells from patient samples were stimulated with TLR agonists as described, but without GolgiStop. Media containing the cell-secreted chemokines were collected and centrifuged to remove cell debris. CXCL10 was measured using the BD OptEIA human IP-10 ELISA Set with BD OptEIA buffers (BD Biosciences).

lung cancer cell lines = assay: CXCL10 production by lung cancer cell lines, flow cytometry; assay type: cell-based, human; conditions: lung cancer cell lines n=8 (FIG. 16)
Description: FIG. 16 (line graph): Treatment of Lung Cancer cells with TLR1/2 agonists-TLR1/2 agonists can induce some CXCL10 production from lung cancer cell lines. Lung cancer cells were stimulated with TLR agonists overnight alone or in combination with IFNγ (IFNγ stimulation indicated as +). CXCL10 production was assessed by flow cytometry from the indicated lung cancer cell lines (n=8).

fibroblast-stimulating lipopeptide-1 [FSL-1]
optimal concentration for CXCL10 production (DM13 cells): 5 µg/mL
chemokine production [1]: little chemokine production

CC(C)Cn1cnc2c(N)nc3ccccc3c21 [imiquimod]
effect on CXCL10 induction (DM13 cells): little effect
chemokine production [1]: little chemokine production

lipopolysaccharide [LPS]
concentration inducing CXCL10 at levels comparable to MALP-2 or FSL-1 and IFNγ (DM13 cells; +IFNγ (FIG. 3D)): 100 µg/mL
concentration inducing comparable levels of CXCL10 (DM13 cells; in combination with IFNγ, compared with TLR2/6 agonists): ≥ 100 µg
chemokine production [1]: little chemokine production
cell lines with induced CXCL10 production (breast cancer cell lines): 2/4

macrophage-activating lipopeptide 2 [MALP-2]
optimal concentration for CXCL10 production (DM13 cells): 0.1 µg/mL
chemokine production [1]: little chemokine production

interferon gamma [IFNγ, recombinant human IFNγ (PeproTech), used at 1000 IU/mL]
CXCL10 production by melanoma cells (S100+CD45neg), percentage of CXCL10+ cells and MFI [2]: produced CXCL10
expression of TLR2 or TLR6 (21 melanoma cell lines): neither was impacted
percent of cells producing CXCL10 [3]: 7%
fold change of gene induction, CXCL9 [4]: 20.7 fold change
fold change of gene induction, CXCL10 [4]: 36.5 fold change
fold change of gene induction, GBP1 [4]: 50.6 fold change
fold change of gene induction, GBP4 [4]: 84.9 fold change
fold change of gene induction, IFI30 [4]: 14.4 fold change
fold change of gene induction, IFITM1 [4]: 14.4 fold change
fold change of gene induction, IRF1 [4]: 30.2 fold change
fold change of gene induction, OAS2 [4]: 24.1 fold change
fold change of gene induction, TNFSF10 [4]: 25.7 fold change
fold change of gene induction, XAF1 [4]: 22.8 fold change
CXCL10 in supernatants [5]: ~400 pg/mL

Pam3CysSerLys4 [Pam3CSK4]
CXCL10 production (lung cancer cell lines): some CXCL10 production can be induced
cell lines with induced CXCL10 production (breast cancer cell lines): 2/4

poly-ICLC
effect on CXCL10 induction (DM13 cells): little effect
chemokine production [1]: little chemokine production
